Measurements as given in patent US20170333532A1, “ADP'ASE-ENHANCED APYRASE THERAPY FOR WOUNDS, MICROBIAL INFECTION, SEPSIS, AND HETEROTOPIC OSSIFICATION” (APT THERAPEUTICS, INC, priority 2014, published 2017).

Assays:
[1] = test system: E. coli strain K12; assay: Effect of colistin, Apyrase Agent and combinations on E. coli growth curve; assay type: cell-based
Method: The effect of colistin, Apyrase agent, and combinations thereof were examined on E. coli growth.
E. coli strain K12 was cultivated to a concentration of about 0.1 OD (A600 nm).
The effect of colistin on E. coli growth. Replicate cultures were cultivated in the presence of colistin (at a concentration of 0.25 μg/ml) and various amounts of additional Apyrase Agent buffer (Tris-biffered saline; 1, 3, 10, or 30 μL).
The effect of Apyrase Agent on E. coli growth. Replicate cultures were cultivated in the presence of Apyrase Agent at various concentrations (i.e. 1, 3, 10, or 30 U/ml).
The effect of a combination of colistin and Apyrase Agent on E. coli growth. Replicate cultures were cultivated in the presence of colistin (at a concentration of […]) combined with Apyrase Agent at various concentrations (namely 1, 3, 10, or 30 U/ml).

[2] = test system: A. baumannii strain AC285; assay: Killing of colistin-resistant A. baumannii AC285 by colistin with Apyrase Agent, CFU count; assay type: cell-based; conditions: colistin at less than 5-10 μg/ml, with Apyrase Agent 2 U/ml or alone
Method: (§1) In this Example (and in subsequent Examples), the colistin is colistin sulfate salt, catalog number C4461 from Sigma-Aldrich (St. Louis, Mo.) and the apyrase is catalog number M0393L from New England BioLabs Inc. (Ipswich, Mass.).
Approximately 10^5 to 10^6 CFU/ml of the colistin-resistant A. baumannii strain AC285 is grown in the presence of combinations of 0 and 2 U/ml of Apyrase Agent and approximately 0 to 32 μg/ml of colistin. After incubation, the numbers of viable cells are determined by counting the colony forming units (CFU) on the plate (data provided as CFU/ml). Apyrase Agent improves the efficiency of killing A. baumannii strain AC285 by colistin. Apyrase Agent increases the effectiveness of colistin at less than 5-10 μg/ml such that less than 10 to 100 CFU/ml are detected relative to greater than 10^7 to 10^8 in the presence of colistin alone at the same concentrations.

[3] = test system: P. aeruginosa strain AU1292; assay: Killing of P. aeruginosa AU1292 by colistin with Apyrase Agent, CFU count; assay type: cell-based; conditions: colistin at less than 20 μg/ml, with Apyrase Agent 2 U/ml or alone
Method: as §1
(§2) P. aeruginosa strain AU1292 is grown in the presence of combinations of 0 and 2 U/ml of Apyrase Agent and approximately 0 to 20 μg/ml of colistin. After incubation, the numbers of viable cells are determined by counting the colony forming units (CFU) on the plate (data provided as CFU/ml). Apyrase Agent improves the efficiency of killing P. aeruginosa strain AU1292 by colistin. Apyrase Agent increases the effectiveness of colistin at less than 20 μg/ml such that less than 10 to 100 CFU/ml are detected relative to greater than 10^4 to 10^5 in the presence of colistin alone at the same concentrations.

[4] = test system: P. aeruginosa strain AU7443, mucoid; assay: Killing of P. aeruginosa AU7443, mucoid by colistin with Apyrase Agent, CFU count; assay type: cell-based; conditions: colistin at less than 20 μg/ml, with Apyrase Agent 2 U/ml or alone
Method: as §1
as §2, with “AU7443, mucoid” for “AU1292”

[5] = test system: Burkholderia cepacia AU1114; assay: Killing of Burkholderia cepacia AU1114 by colistin with Apyrase Agent, CFU count; assay type: cell-based; conditions: colistin at less than 20 μg/ml, with Apyrase Agent 2 U/ml or alone
Method: as §1
as §2, with “Burkholderia cepacia AU1114” for “P. aeruginosa strain AU1292”, “10^5” for “10^4”, “10^6” for “10^5”

[6] = test system: P. aeruginosa AU0584; assay: Killing of P. aeruginosa AU0584 by colistin with Apyrase Agent, CFU count; assay type: cell-based; conditions: colistin at less than 10 μg/ml, with Apyrase Agent 2 U/ml or alone
Method: as §1
P. aeruginosa AU0584 is grown in the presence of combinations of 0 and 2 U/ml of Apyrase Agent and approximately 0 to 20 μg/ml of colistin. After incubation, the numbers of viable cells are determined by counting the colony forming units (CFU) on the plate (data provided as CFU/ml). Apyrase Agent improves the efficiency of killing P. aeruginosa AU0584 by colistin. Apyrase Agent increases the effectiveness of colistin at less than 10 μg/ml such that less than 10 to 100 CFU/ml are detected relative to greater than 10^3 to 10^4 in the presence of colistin alone at the same concentrations.

[7] = test system: Burkholderia dolosa AU0589; assay: Killing of Burkholderia dolosa AU0589 by colistin with Apyrase Agent, CFU count; assay type: cell-based; conditions: colistin at less than 20 μg/ml, with Apyrase Agent 2 U/ml or alone
Method: as §1
Burkholderia dolosa AU0589 is grown in the presence of combinations of 0 and 2 U/ml of Apyrase Agent and approximately 0 to 20 μg/ml of colistin. After incubation, the numbers of viable cells are determined by counting the colony forming units (CFU) on the plate (data provided as CFU/ml). Apyrase Agent improves the efficiency of killing Burkholderia dolosa AU0589 by colistin. Apyrase Agent increases the effectiveness of colistin at less than 20 μg/ml such that less than 10 to 100 CFU/ml are detected relative to greater than 10^6 to 10^7 in the presence of colistin alone at the same concentrations.

[8] = test system: A. baumannii ATCC DMCI; assay: Mouse model for wound infection and healing (burn), A. baumannii ATCC DMCI, treatment 24 hours after inoculation; assay type: in vivo; conditions: wounds treated 24 hours after inoculation, skin collected 48 hours after the burn
Method: e.g., in a mouse model for wound infection and healing. After a burn, A. baumannii ATCC DMCI is inoculated on skin. After 24 hours, the wounds are treated with Apyrase Agent alone, colistin alone, or Apyrase Agent and colistin in combination. Skin samples are collected after another 24 hours and the CFU/g skin of A baumannii ATCC DMCI is determined. […] In the presence of Apyrase Agent or colistin alone, A. baumannii is detected at amounts of approximately 10^8 CFU/g of skin.

## colistin sulfate salt
[1]; colistin 0.25 μg/ml plus Apyrase Agent buffer 1, 3, 10, or 30 μL, 24 hour period, FIG. 1
  effect on E coli growth: no effect
[1]; colistin 0.25 mg/ml alone or combined with Apyrase Agent 1, 3, 10, or 30 U/ml, FIG. 3
  effect on E. coli growth: negligible effect
[2]
  numbers of viable cells (CFU): 10^7 to 10^8 CFU/ml
[3]
  numbers of viable cells (CFU): 10^4 to 10^5 CFU/ml
[4]
  numbers of viable cells (CFU): 10^4 to 10^5 CFU/ml
[5]
  numbers of viable cells (CFU): 10^5 to 10^6 CFU/ml
[6]
  numbers of viable cells (CFU): 10^3 to 10^4 CFU/ml
[7]
  numbers of viable cells (CFU): 10^6 to 10^7 CFU/ml
[8]
  A. baumannii detected on skin: approximately 10^8 CFU/g of skin
